In test [1] the test system is HSV-1 ACV resistant. In words: In vitro activity, HSV-1 ACV resistant. The following applies: Human alphaherpesvirus 1. Type of test: cell-based. The procedure:
(§1) The in vitro activity of the new compounds was measured as described in WO2017/174640 and in WO2019/068817.

For test [2], the system named is HSV-2. Nature of the test: In vitro activity, HSV-2 infected Vero cells. Type of test: cell-based. The procedure:
as §1

In test [3] the test system is HSV-1. Nature of the test: In vitro activity, HSV-1 infected Vero cells. Type of test: cell-based. On the procedure: as §1
The subject of test [4] is HSV-1. In words: Second oHSV experiment (repeated virus injection): number of dead animals by day. The class given is in vivo, mice. The note with it: for Number of dead animals by day: n=10; for rescue of mice from virus-induced death: second experiment, multiple intratumoral HSV injections, 10 mg/kg po. On the procedure:
The methods of the first experiment were used and the experimental design was modified in the second experiment as follows: • 1. The oncolytic herpesvirus was, in contrast to the first experiment, injected multiple times at a constant dose at distinct intervals. • 2. In addition to Example 7(-) used in the first experiment, the efficacy of a series of helicase primase inhibitors was tested in the second experiment to enable the class of helicase primase inhibitors in general.
Pharmacological animal groups (10 animals per group, 80 animals in total and 5 animals per group in the satellite group; 50 animals in total used for analysis of plasma and tumor samples) were organized as such: • 1. Control virus-untreated group: test compound vehicle, oral gavage, once a day, for 2 days and starting 48 h after each virus injection time-point. • 2. Control virus vehicle-treated group: 100 μL of virus vehicle by intratumoral injection when tumors reached an average volume of ˜50 mm^3 (i.e. on day 11) then 2 injections spaced 5 days apart from each other; with test compound vehicle, oral gavage, once a day, for 2 days and starting 48 h after each virus injection time-point. • 3. HSV-1 (5×10^7 pfu)-treated group: 100 μL of HSV-1 (5×10^7) by intratumoral injection when tumors reached an average volume of ˜50 mm^3 (i.e. on day 11) then 2 injections spaced 5 days apart from each other; with test compound vehicle, oral gavage, once a day, for 2 days and starting 48 h after each virus injection time-point and with anti-PD-1 vehicle, intraperitoneal injection (100 μL PBS) on the same day as the virus injection, and then 3 administrations spaced 3 days apart from each other (days 11, 14, 17 and 20). • 4. HSV-1 (5×10^7 pfu)+anti-PD1-treated group: 100 μL of HSV-1 (5×10^7 pfu) intratumoral injection when tumors reached an average volume of ˜50 mm^3 (i.e. on day 11) then 2 injections spaced 5 days apart from each other; with test compound vehicle, oral gavage, once a day, for 2 days and starting 48 h after each virus injection time-point and with anti-PD-1 (5 mg/kg), intraperitoneal injection on the same day as the virus injection, and then 3 administrations spaced 3 days apart from each other (days 11, 14, 17 and 20). • 5. HSV-1 (5×10^7 pfu)-Example 10—treated group: 100 μL of HSV-1 (5×10^7 pfu) intratumoral injection when tumors reached an average volume of ˜50 mm^3 (i.e. on day 11) then 2 injections spaced 5 days apart from each other; with Example 10 (10 mg/kg), oral gavage, once a day, for 2 days and starting 48 h after each virus injection time-point (days 13, 14, 18, 19, 23 and 24). • 6. HSV-1 (5×10^7 pfu)-pritelivir-treated group: 100 μL of HSV-1 (5×10^7 pfu) intratumoral injection when tumors reached an average volume of ˜50 mm^3 (i.e. on day 11) then 2 injections spaced 5 days apart from each other; with pritelivir (10 mg/kg), oral gavage, once a day, for 2 days and starting 48 h after each virus injection time-point (days 13, 14, 18, 19, 23 and 24). • 7. HSV-1 (5×10^7 pfu)-amenamevir-treated group: 100 μL of HSV-1 (5×10^7 pfu) intratumoral injection when tumors reached an average volume of ˜5 0mm^3 (i.e. on day 11) then 2 injections spaced 5 days apart from each other; with amenamevir (10 mg/kg), oral gavage, once a day, for 2 days and starting 48 h after each virus injection time-point (days 13, 14, 18, 19, 23 and 24). • 8. HSV-1 (5×10^7 pfu)-Example 10+anti-PD1-treated group: 100 μL of HSV-1 (5×10^7 pfu) intratumoral injection when tumors reached an average volume of ˜50 mm^3 (i.e. on day 11) then 2 injections spaced 5 days apart from each other; with Example 10 (10 mg/kg), oral gavage, once a day, for 2 days and starting 48 h after each virus injection time-point (days 13, 14, 18, 19, 23 and 24) and with anti-PD-1 (5 mg/kg), intraperitoneal injection on the same day as the virus injection and then 3 administrations spaced 3 days apart each other (days 11, 14, 17 and 20). Results of the Second oHSV Experiment […]

Each structure is given as a SMILES string. Like-named read-outs stand apart in the source and are kept apart here.

A word on the IC50: it is the concentration that gives 50% inhibition. A higher IC50 goes with a need for much substance.

`Cc1nc(N(C)C(=O)C2Cc3ccc(-c4cc(F)ccc4F)cc3C2)sc1S(N)(=O)=O` (racemic) [Example 1, 5-(2,5-Difluorophenyl)-N-methyl-N-(4-methyl-5-sulfamoylthiazol-2-yl)-2,3-di-hydro-1H-indene-2-carboxamide]: the IC50 stood at 16 nM in test [1]; 50 nM in test [2] (Human alphaherpesvirus 2, Vero); 16 nM in test [3] (Human alphaherpesvirus 1, Vero).

Consider `Cc1nc(N(C)C(=O)C2Cc3ccc(-c4cc(F)ccc4F)cc3C2)sc1S(C)(=N)=O` (single isomer, unassigned) [Example 5, 5-(2,5-Difluorophenyl)-N-methyl-N-(4-methyl-5-(S-methylsulfonimidoyl)thiazol-2-yl)-2,3-dihydro-1H-indene-2-carboxamide], for which the IC50 in test [2] and in test [3] was 20000 nM in each case.

For the molecule `Cc1nc(N(C)C(=O)C2Cc3ccc(-c4cc(F)ccc4F)cc3C2)sc1S(C)(=N)=O` (single isomer, unassigned) [Example 6, 5-(2,5-Difluorophenyl)-N-methyl-N-(4-methyl-5-(S-methylsulfonimidoyl)thiazol-2-yl)-2,3-dihydro-1H-indene-2-carboxamide], the half-inhibitory concentration (IC50) in test [2] worked out at 750 nM; in test [3], 75 nM.

In the case of `Cc1nc(N(C)C(=O)C2Cc3ccc(-c4cc(F)ccc4F)cc3C2)sc1S(C)(=N)=O` (single isomer, unassigned) [Example 8, 5-(2,5-Difluorophenyl)-N-methyl-N-(4-methyl-5-(S-methylsulfonimidoyl)thiazol-2-yl)-2,3-dihydro-1H-indene-2-carboxamide], the concentration for half-maximal inhibition (IC50) in test [2] came out at 1500 nM; in test [3], 175 nM.

On to `Cc1nc(N(C)C(=O)C2Cc3ccc(-c4cc(F)ccc4F)cc3C2)sc1S(C)(=N)=O` (single isomer, unassigned) [Example 9, 5-(2,5-Difluorophenyl)-N-methyl-N-(4-methyl-5-(S-methylsulfonimidoyl)thiazol-2-yl)-2,3-dihydro-1H-indene-2-carboxamide], for which the values for the IC50 in test [2] and in test [3] were 45000 nM and 10000 nM, respectively.

With `Cc1nc(N(C)C(=O)C2Cc3ccc(-c4cc(F)ccc4F)cc3C2)sc1S(N)(=O)=O` (single isomer, unassigned; (+)) [Example 3, (+)-5-(2,5-difluorophenyl)-N-methyl-N-(4-methyl-5-sulfamoylthiazol-2-yl)-2,3-dihydro-1H-indene-2-carboxamide], the IC50 in test [2] stood at 16 nM; in test [3], 0.5 nM.

For the molecule `Cc1nc(N(C)C(=O)C2Cc3ccc(-c4cc(F)ccc4F)cc3C2)sc1S(N)(=O)=O` (single isomer, unassigned; (-)) [Example 2, (−)-5-(2,5-Difluorophenyl)-N-methyl-N-(4-methyl-5-sulfamoylthiazol-2-yl)-2,3-dihydro-1H-indene-2-carboxamide], the values for the IC50 in test [2] and in test [3] were 16000 nM and 2000 nM, respectively.

In the case of `Cc1nc(N(C)C(=O)Cc2ccc(-c3cc(F)ccc3F)cc2)sc1S(N)(=O)=O` [Example 10, 2-(2′,5′-Difluoro-[1,1′-biphenyl]-4-yl)-N-methyl-N-(4-methyl-5-sulfamoylthiazol-2-yl)acetamide], the “Number of dead animals by day” value is 0 in test [4] (day 7, HSV-1 5×10^7 pfu + Example 10 10 mg/kg po); 0 in test [4] (day 7, HSV-1 5×10^7 pfu + anti-PD-1 5 mg/kg ip + Example 10 10 mg/kg po); 0 in test [4] (day 9, HSV-1 5×10^7 pfu + Example 10 10 mg/kg po); 0 in test [4] (day 9, HSV-1 5×10^7 pfu + anti-PD-1 5 mg/kg ip + Example 10 10 mg/kg po); 0 in test [4] (day 11, HSV-1 5×10^7 pfu + Example 10 10 mg/kg po); 0 in test [4] (day 11, HSV-1 5×10^7 pfu + anti-PD-1 5 mg/kg ip + Example 10 10 mg/kg po). The “Number of dead animals by day” value came out at 0 in test [4] (day 14, HSV-1 5×10^7 pfu + Example 10 10 mg/kg po); 0 in test [4] (day 14, HSV-1 5×10^7 pfu + anti-PD-1 5 mg/kg ip + Example 10 10 mg/kg po); 0 in test [4] (day 16, HSV-1 5×10^7 pfu + Example 10 10 mg/kg po); 0 in test [4] (day 16, HSV-1 5×10^7 pfu + anti-PD-1 5 mg/kg ip + Example 10 10 mg/kg po); 1 in test [4] (day 18, HSV-1 5×10^7 pfu + Example 10 10 mg/kg po); 1 in test [4] (day 18, HSV-1 5×10^7 pfu + anti-PD-1 5 mg/kg ip + Example 10 10 mg/kg po). Besides, the “Number of dead animals by day” value turned out to be 1 in test [4] (day 21, HSV-1 5×10^7 pfu + Example 10 10 mg/kg po) and 1 in test [4] (day 21, HSV-1 5×10^7 pfu + anti-PD-1 5 mg/kg ip + Example 10 10 mg/kg po). In addition, the “rescue of mice from virus-induced death” value in test [4] is given as “the mice can be rescued”.

Take `Cc1cccc(C)c1N(CC(=O)Nc1ccc(-c2ncon2)cc1)C(=O)C1CCS(=O)(=O)CC1` [amenamevir, Amenamevir]: the “Number of dead animals by day” value turned out to be 0 in test [4] (day 7, HSV-1 5×10^7 pfu + amenamevir 10 mg/kg po); 0 in test [4] (day 9, HSV-1 5×10^7 pfu + amenamevir 10 mg/kg po); 0 in test [4] (day 11, HSV-1 5×10^7 pfu + amenamevir 10 mg/kg po); 0 in test [4] (day 14, HSV-1 5×10^7 pfu + amenamevir 10 mg/kg po); 0 in test [4] (day 16, HSV-1 5×10^7 pfu + amenamevir 10 mg/kg po); 2 in test [4] (day 18, HSV-1 5×10^7 pfu + amenamevir 10 mg/kg po). Also, the “Number of dead animals by day” value in test [4] (day 21, HSV-1 5×10^7 pfu + amenamevir 10 mg/kg po) stood at 2. Further, the “rescue of mice from virus-induced death” value in test [4] is reported as “the mice can be rescued”.

Regarding `Cc1nc(N(C)C(=O)Cc2ccc(-c3ccccn3)cc2)sc1S(N)(=O)=O` [pritelivir, Pritelivir], the “Number of dead animals by day” value in test [4] (day 7, HSV-1 5×10^7 pfu + pritelivir 10 mg/kg po) turned out to be 0; in test [4] (day 9, HSV-1 5×10^7 pfu + pritelivir 10 mg/kg po), 0; in test [4] (day 11, HSV-1 5×10^7 pfu + pritelivir 10 mg/kg po), 0; in test [4] (day 14, HSV-1 5×10^7 pfu + pritelivir 10 mg/kg po), 0; in test [4] (day 16, HSV-1 5×10^7 pfu + pritelivir 10 mg/kg po) it was 0; in test [4] (day 18, HSV-1 5×10^7 pfu + pritelivir 10 mg/kg po), 0. Further, the “Number of dead animals by day” value in test [4] (day 21, HSV-1 5×10^7 pfu + pritelivir 10 mg/kg po) is 0. The “rescue of mice from virus-induced death” value in test [4] is given as “the mice can be rescued”.

The values are drawn from patent US20240408068A1, “Helicase Primase Inhibitors For Treating Cancer In A Combination Therapy With Oncolytic Viruses” (priority 2018, published 2024).
